Measured values from PubChem BioAssay (NCI).
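A five-concentration, 48-hour dose response in 96-well plates underlies each endpoint, interpolated linearly between surrounding concentrations. The concentration for full growth arrest is given as TGI.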

Assays:
Assay in all cases: growth of human tumour cells (NCI), 48 h
PC-3 prostate = test system: PC-3 prostate
OVCAR-4 ovarian = test system: OVCAR-4 ovarian
HS 578T breast = test system: HS 578T breast
RXF 393 renal = test system: RXF 393 renal
UACC-257 melanoma = test system: UACC-257 melanoma
OVCAR-5 ovarian = test system: OVCAR-5 ovarian
A498 renal = test system: A498 renal
786-0 renal = test system: 786-0 renal
MALME-3M melanoma = test system: MALME-3M melanoma
IGROV1 ovarian = test system: IGROV1 ovarian
T-47D breast = test system: T-47D breast
MDA-MB-231 breast = test system: MDA-MB-231 breast
LOX IMVI melanoma = test system: LOX IMVI melanoma
SK-MEL-2 melanoma = test system: SK-MEL-2 melanoma
HCC-2998 colon = test system: HCC-2998 colon
SW-620 colon = test system: SW-620 colon
KM12 colon = test system: KM12 colon
COLO 205 colon = test system: COLO 205 colon
HOP-92 NSCLC = test system: HOP-92 NSCLC
OVCAR-3 ovarian = test system: OVCAR-3 ovarian
HCT-15 colon = test system: HCT-15 colon
EKVX NSCLC = test system: EKVX NSCLC
BT-549 breast = test system: BT-549 breast
SF-295 CNS = test system: SF-295 CNS
K-562 leukemia = test system: K-562 leukemia
NCI-H460 lung = test system: NCI-H460 lung
CAKI-1 renal = test system: CAKI-1 renal
NCI-H522 lung = test system: NCI-H522 lung
SN12C renal = test system: SN12C renal
UO-31 renal = test system: UO-31 renal
HOP-62 NSCLC = test system: HOP-62 NSCLC
SNB-75 CNS = test system: SNB-75 CNS
SF-268 CNS = test system: SF-268 CNS
A549 NSCLC = test system: A549 NSCLC
TK-10 renal = test system: TK-10 renal
U251 CNS = test system: U251 CNS
SK-MEL-5 melanoma = test system: SK-MEL-5 melanoma
OVCAR-8 ovarian = test system: OVCAR-8 ovarian
RPMI-8226 leukemia = test system: RPMI-8226 leukemia
ACHN renal = test system: ACHN renal
DU-145 prostate = test system: DU-145 prostate
MDA-MB-435 = test system: MDA-MB-435
NCI/ADR-RES ovarian = test system: NCI/ADR-RES ovarian
UACC-62 melanoma = test system: UACC-62 melanoma
NCI-H23 lung = test system: NCI-H23 lung
MDA-N = test system: MDA-N
SNB-19 CNS = test system: SNB-19 CNS
SK-MEL-28 melanoma = test system: SK-MEL-28 melanoma
M14 melanoma = test system: M14 melanoma
SK-OV-3 ovarian = test system: SK-OV-3 ovarian
MCF7 breast = test system: MCF7 breast
SR leukemia = test system: SR leukemia
HL-60(TB) leukemia = test system: HL-60(TB) leukemia
MOLT-4 leukemia = test system: MOLT-4 leukemia
NCI-H226 lung = test system: NCI-H226 lung
HCT-116 colon = test system: HCT-116 colon
CCRF-CEM leukemia = test system: CCRF-CEM leukemia
SF-539 CNS = test system: SF-539 CNS
HT29 colon = test system: HT29 colon

## COC(=O)[C@]12C3=C(O)C(=O)C[C@H]1OC[C@H]2C=CC3
PC-3 prostate
  TGI: > 100 µM
OVCAR-4 ovarian
  TGI: > 100 µM
HS 578T breast
  TGI: > 100 µM
RXF 393 renal
  TGI: > 100 µM
UACC-257 melanoma
  TGI: > 100 µM
OVCAR-5 ovarian
  TGI: > 100 µM
A498 renal
  TGI: > 100 µM
786-0 renal
  TGI: > 100 µM
MALME-3M melanoma
  TGI: > 100 µM
IGROV1 ovarian
  TGI: > 100 µM
T-47D breast
  TGI: > 100 µM
MDA-MB-231 breast
  TGI: > 100 µM
LOX IMVI melanoma
  TGI: > 100 µM
SK-MEL-2 melanoma
  TGI: > 100 µM
HCC-2998 colon
  TGI: > 100 µM
SW-620 colon
  TGI: 63.4 µM
KM12 colon
  TGI: > 100 µM
COLO 205 colon
  TGI: > 100 µM
HOP-92 NSCLC
  TGI: > 100 µM
OVCAR-3 ovarian
  TGI: > 100 µM
HCT-15 colon
  TGI: > 100 µM
EKVX NSCLC
  TGI: > 100 µM
BT-549 breast
  TGI: > 100 µM
SF-295 CNS
  TGI: > 100 µM
K-562 leukemia
  TGI: > 100 µM
NCI-H460 lung
  TGI: > 100 µM
CAKI-1 renal
  TGI: > 100 µM
NCI-H522 lung
  TGI: 46.8 µM
SN12C renal
  TGI: > 100 µM
UO-31 renal
  TGI: > 100 µM
HOP-62 NSCLC
  TGI: > 100 µM
SNB-75 CNS
  TGI: > 100 µM
SF-268 CNS
  TGI: > 100 µM
A549 NSCLC
  TGI: > 100 µM
TK-10 renal
  TGI: > 100 µM
U251 CNS
  TGI: > 100 µM
SK-MEL-5 melanoma
  TGI: > 100 µM
OVCAR-8 ovarian
  TGI: > 100 µM
RPMI-8226 leukemia
  TGI: > 100 µM
ACHN renal
  TGI: > 100 µM
DU-145 prostate
  TGI: > 100 µM
MDA-MB-435
  TGI: > 100 µM
NCI/ADR-RES ovarian
  TGI: > 100 µM
UACC-62 melanoma
  TGI: > 100 µM
NCI-H23 lung
  TGI: > 100 µM
MDA-N
  TGI: > 100 µM
SNB-19 CNS
  TGI: > 100 µM
SK-MEL-28 melanoma
  TGI: > 100 µM
M14 melanoma
  TGI: > 100 µM
SK-OV-3 ovarian
  TGI: > 100 µM
MCF7 breast
  TGI: > 100 µM
SR leukemia
  TGI: > 100 µM

## CCOC(=O)N/N=C(\CC)NO
PC-3 prostate
  TGI: > 100 µM
OVCAR-4 ovarian
  TGI: > 100 µM
HS 578T breast
  TGI: > 100 µM
RXF 393 renal
  TGI: > 100 µM
UACC-257 melanoma
  TGI: > 100 µM
HL-60(TB) leukemia
  TGI: > 100 µM
OVCAR-5 ovarian
  TGI: > 100 µM
A498 renal
  TGI: > 100 µM
786-0 renal
  TGI: > 100 µM
MALME-3M melanoma
  TGI: > 100 µM
IGROV1 ovarian
  TGI: > 100 µM
T-47D breast
  TGI: > 100 µM
MDA-MB-231 breast
  TGI: > 100 µM
LOX IMVI melanoma
  TGI: > 100 µM
SK-MEL-2 melanoma
  TGI: > 100 µM
HCC-2998 colon
  TGI: > 100 µM
SW-620 colon
  TGI: > 100 µM
KM12 colon
  TGI: > 100 µM
COLO 205 colon
  TGI: > 100 µM
HOP-92 NSCLC
  TGI: > 100 µM
OVCAR-3 ovarian
  TGI: > 100 µM
HCT-15 colon
  TGI: > 100 µM
MOLT-4 leukemia
  TGI: > 100 µM
EKVX NSCLC
  TGI: > 100 µM
BT-549 breast
  TGI: > 100 µM
K-562 leukemia
  TGI: > 100 µM
NCI-H460 lung
  TGI: > 100 µM
NCI-H226 lung
  TGI: > 100 µM
HCT-116 colon
  TGI: > 100 µM
CAKI-1 renal
  TGI: > 100 µM
NCI-H522 lung
  TGI: > 100 µM
SN12C renal
  TGI: > 100 µM
UO-31 renal
  TGI: > 100 µM
HOP-62 NSCLC
  TGI: > 100 µM
SF-268 CNS
  TGI: > 100 µM
A549 NSCLC
  TGI: > 100 µM
TK-10 renal
  TGI: > 100 µM
U251 CNS
  TGI: > 100 µM
SK-MEL-5 melanoma
  TGI: > 100 µM
OVCAR-8 ovarian
  TGI: > 100 µM
RPMI-8226 leukemia
  TGI: > 100 µM
ACHN renal
  TGI: > 100 µM
DU-145 prostate
  TGI: > 100 µM
MDA-MB-435
  TGI: > 100 µM
CCRF-CEM leukemia
  TGI: > 100 µM
NCI/ADR-RES ovarian
  TGI: > 100 µM
UACC-62 melanoma
  TGI: > 100 µM
NCI-H23 lung
  TGI: > 100 µM
MDA-N
  TGI: > 100 µM
SNB-19 CNS
  TGI: > 100 µM
SK-MEL-28 melanoma
  TGI: > 100 µM
SK-OV-3 ovarian
  TGI: > 100 µM
MCF7 breast
  TGI: > 100 µM
SF-539 CNS
  TGI: > 100 µM
SR leukemia
  TGI: > 100 µM
HT29 colon
  TGI: > 100 µM

## O=[N+]([O-])c1cccc(-c2cn3c(n2)Cc2ccccc2C3)c1
PC-3 prostate
  TGI: > 100 µM
OVCAR-4 ovarian
  TGI: > 100 µM
HS 578T breast
  TGI: > 100 µM
RXF 393 renal
  TGI: > 100 µM
UACC-257 melanoma
  TGI: > 100 µM
HL-60(TB) leukemia
  TGI: > 100 µM
OVCAR-5 ovarian
  TGI: 79.9 µM
A498 renal
  TGI: > 100 µM
786-0 renal
  TGI: > 100 µM
MALME-3M melanoma
  TGI: > 100 µM
IGROV1 ovarian
  TGI: > 100 µM
T-47D breast
  TGI: > 100 µM
MDA-MB-231 breast
  TGI: 67.6 µM
LOX IMVI melanoma
  TGI: > 100 µM
SK-MEL-2 melanoma
  TGI: > 100 µM
SW-620 colon
  TGI: > 100 µM
KM12 colon
  TGI: > 100 µM
COLO 205 colon
  TGI: > 100 µM
HOP-92 NSCLC
  TGI: > 100 µM
HCT-15 colon
  TGI: > 100 µM
MOLT-4 leukemia
  TGI: > 100 µM
EKVX NSCLC
  TGI: > 100 µM
BT-549 breast
  TGI: > 100 µM
SF-295 CNS
  TGI: > 100 µM
K-562 leukemia
  TGI: > 100 µM
NCI-H460 lung
  TGI: > 100 µM
NCI-H226 lung
  TGI: > 100 µM
HCT-116 colon
  TGI: > 100 µM
CAKI-1 renal
  TGI: 58.2 µM
NCI-H522 lung
  TGI: > 100 µM
SN12C renal
  TGI: > 100 µM
UO-31 renal
  TGI: > 100 µM
HOP-62 NSCLC
  TGI: > 100 µM
SNB-75 CNS
  TGI: > 100 µM
SF-268 CNS
  TGI: > 100 µM
A549 NSCLC
  TGI: > 100 µM
TK-10 renal
  TGI: > 100 µM
U251 CNS
  TGI: > 100 µM
SK-MEL-5 melanoma
  TGI: > 100 µM
OVCAR-8 ovarian
  TGI: > 100 µM
ACHN renal
  TGI: > 100 µM
DU-145 prostate
  TGI: > 100 µM
MDA-MB-435
  TGI: > 100 µM
CCRF-CEM leukemia
  TGI: > 100 µM
NCI/ADR-RES ovarian
  TGI: > 100 µM
UACC-62 melanoma
  TGI: > 100 µM
NCI-H23 lung
  TGI: > 100 µM
MDA-N
  TGI: > 100 µM
SNB-19 CNS
  TGI: > 100 µM
SK-MEL-28 melanoma
  TGI: > 100 µM
M14 melanoma
  TGI: > 100 µM
SK-OV-3 ovarian
  TGI: > 100 µM
MCF7 breast
  TGI: > 100 µM
SF-539 CNS
  TGI: > 100 µM
SR leukemia
  TGI: > 100 µM
HT29 colon
  TGI: > 100 µM
